For data set [1], the system named is Mus musculus. Kind of data set: Cognitive enhancing effect in Balb/c mouse assessed as protection against amyloid beta (1 to 42) oligomers-induced memory damage at 10 mg/kg, po qd via gavage for 17 days starting from 24 hrs post amyloid beta (1 to 42) oligomer treatment measured on day 14 by Y-maze test. The format is functional, organism-based.
In data set [2] the test system is Mus musculus. Kind of data set: Cognitive enhancing effect in amyloid beta (1 to 42)-induced dementia Balb/c mouse model assessed as protection against spatial memory impairment by measuring latency to find food on third and fourth days of test at 10 mg/kg, po qd via gavage for 17 days starting from 24 hrs post amyloid beta (1 to 42) oligomer treatment measured on day 14 by radial arm-maze test. The format is functional, organism-based.

For data set [3], the system named is Mus musculus. As to the kind of experiment: Cognitive enhancing effect in amyloid beta (1 to 42)-induced dementia Balb/c mouse model assessed as protection against spatial memory impairment by measuring reduction in total errors to find food on third and fourth days of test at 10 mg/kg, po qd via gavage for 17 days starting from 24 hrs post amyloid beta (1 to 42) oligomer treatment measured on day 14 by radial arm-maze test. The format is functional, organism-based.

The next data set deals with Cholinesterase (Homo sapiens, UniProt P06276). Kind of data set: Inhibition of human plasma BuChE using acetylthiocholine iodide as substrate by Ellman's method. For orientation: Ellman's reagent forms a yellow product with free thiols.
Cholinesterase, sequence (P06276 whole entry): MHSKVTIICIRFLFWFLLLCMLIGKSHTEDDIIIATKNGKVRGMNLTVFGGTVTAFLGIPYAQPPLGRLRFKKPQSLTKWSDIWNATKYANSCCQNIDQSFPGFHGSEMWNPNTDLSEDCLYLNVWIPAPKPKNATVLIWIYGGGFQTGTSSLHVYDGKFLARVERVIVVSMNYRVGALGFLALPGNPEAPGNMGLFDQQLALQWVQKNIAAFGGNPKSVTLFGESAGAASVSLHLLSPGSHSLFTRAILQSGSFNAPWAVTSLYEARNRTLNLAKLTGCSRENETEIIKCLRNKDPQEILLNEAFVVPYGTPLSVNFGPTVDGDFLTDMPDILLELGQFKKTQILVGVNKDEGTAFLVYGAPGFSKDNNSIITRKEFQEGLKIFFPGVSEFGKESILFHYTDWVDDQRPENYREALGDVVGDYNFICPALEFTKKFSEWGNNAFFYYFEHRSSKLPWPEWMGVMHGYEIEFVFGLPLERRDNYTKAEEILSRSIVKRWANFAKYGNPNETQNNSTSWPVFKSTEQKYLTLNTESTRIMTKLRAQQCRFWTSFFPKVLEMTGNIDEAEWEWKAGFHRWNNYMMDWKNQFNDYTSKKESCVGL
In a further data set the target is Acetylcholinesterase (Homo sapiens, UniProt P22303). Kind of data set: Inhibition of recombinant human AChE using acetylthiocholine iodide as substrate by Ellman's method.
Acetylcholinesterase, sequence (P22303 whole entry): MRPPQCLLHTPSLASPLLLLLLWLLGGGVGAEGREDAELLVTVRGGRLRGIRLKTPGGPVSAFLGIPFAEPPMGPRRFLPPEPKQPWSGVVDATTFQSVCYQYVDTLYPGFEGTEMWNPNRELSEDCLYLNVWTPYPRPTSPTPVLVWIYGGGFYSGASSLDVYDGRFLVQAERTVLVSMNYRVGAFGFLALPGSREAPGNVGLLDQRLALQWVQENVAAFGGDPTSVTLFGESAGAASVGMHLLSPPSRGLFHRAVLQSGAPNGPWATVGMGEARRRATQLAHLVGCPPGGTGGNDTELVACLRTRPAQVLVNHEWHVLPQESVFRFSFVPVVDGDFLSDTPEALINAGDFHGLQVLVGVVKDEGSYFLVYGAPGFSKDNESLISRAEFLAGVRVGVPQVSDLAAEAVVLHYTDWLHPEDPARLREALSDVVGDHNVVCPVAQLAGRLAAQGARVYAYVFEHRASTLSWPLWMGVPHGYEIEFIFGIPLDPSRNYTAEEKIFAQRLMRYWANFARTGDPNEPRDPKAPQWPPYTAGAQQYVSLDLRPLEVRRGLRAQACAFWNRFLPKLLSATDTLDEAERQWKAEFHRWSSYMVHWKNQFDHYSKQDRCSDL
For a further data set, the target named is Histamine H3 receptor (Homo sapiens, UniProt Q9Y5N1). Kind of data set: Displacement of [3H]-N-alpha-methylhistamine from human H3R expressed in HEK293 cell membranes after 90 mins by liquid scintillation counting method.
Histamine H3 receptor, sequence (Q9Y5N1 whole entry): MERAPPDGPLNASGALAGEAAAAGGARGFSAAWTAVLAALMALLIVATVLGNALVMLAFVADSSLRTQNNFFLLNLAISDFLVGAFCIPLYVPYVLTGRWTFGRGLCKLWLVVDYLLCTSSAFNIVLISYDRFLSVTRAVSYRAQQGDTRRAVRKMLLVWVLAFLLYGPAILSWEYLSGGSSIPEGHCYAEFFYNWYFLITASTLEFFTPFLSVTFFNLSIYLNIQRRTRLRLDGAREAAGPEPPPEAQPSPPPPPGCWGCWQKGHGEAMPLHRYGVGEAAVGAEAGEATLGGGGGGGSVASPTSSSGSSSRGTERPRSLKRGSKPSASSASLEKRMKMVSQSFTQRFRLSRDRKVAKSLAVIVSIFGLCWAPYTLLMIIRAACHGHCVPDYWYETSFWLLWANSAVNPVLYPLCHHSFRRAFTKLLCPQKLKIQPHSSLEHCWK
Data set [4] addresses Sigma non-opioid intracellular receptor 1 (Homo sapiens, UniProt Q99720). Kind of data set: Displacement of (+)-[3H]pentazocine from human sigma1 receptor expressed in HEK293 cell membranes after 60 mins by liquid scintillation counting method.
Data set [5] has as its target T1, Sigma intracellular receptor 2 (Rattus norvegicus, UniProt Q5U3Y7).
T1 sequence (Q5U3Y7 whole entry): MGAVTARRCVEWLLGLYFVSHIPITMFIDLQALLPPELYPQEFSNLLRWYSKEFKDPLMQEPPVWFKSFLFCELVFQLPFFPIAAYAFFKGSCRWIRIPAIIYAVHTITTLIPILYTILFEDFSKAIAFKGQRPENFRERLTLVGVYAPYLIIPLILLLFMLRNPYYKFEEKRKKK
Kind of data set: Displacement of [3H]DTG from sigma2 receptor in rat liver membranes after 60 mins by liquid scintillation counting method. The format is cell membranes, Membrane. (Loss of bound radioactivity is the signal in a displacement assay; it reports binding, not function.)

Data set [6] has as its target T2, Vesicular acetylcholine transporter (Rattus norvegicus, UniProt Q62666).
T2 sequence (Q62666 whole entry): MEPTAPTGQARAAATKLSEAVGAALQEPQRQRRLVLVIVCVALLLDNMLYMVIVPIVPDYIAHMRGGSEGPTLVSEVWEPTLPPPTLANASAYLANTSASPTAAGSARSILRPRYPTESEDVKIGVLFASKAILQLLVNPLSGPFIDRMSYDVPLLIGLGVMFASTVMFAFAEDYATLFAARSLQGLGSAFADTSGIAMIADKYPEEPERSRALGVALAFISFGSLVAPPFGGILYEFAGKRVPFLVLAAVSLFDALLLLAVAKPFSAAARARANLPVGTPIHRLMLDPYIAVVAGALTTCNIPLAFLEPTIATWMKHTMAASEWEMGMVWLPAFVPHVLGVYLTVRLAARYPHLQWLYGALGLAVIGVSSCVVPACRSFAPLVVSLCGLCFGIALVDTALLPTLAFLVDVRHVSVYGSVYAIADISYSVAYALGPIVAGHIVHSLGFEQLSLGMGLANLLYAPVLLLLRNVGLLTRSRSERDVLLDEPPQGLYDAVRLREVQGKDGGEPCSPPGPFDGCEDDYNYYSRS
As to the kind of experiment: Displacement of (-)-[3H]vesamicol from rat VAChT expressed in rat PC12 cell membranes after 60 mins by liquid scintillation counting method.

Data set [7] has as its system Mus musculus. Kind of data set: In vivo agonist activity at sigma1 receptor in sc dosed capsaicin-induced mechanical allodynia CD-1 mouse model assessed as decrease in paw withdrawal latency pretreated for 30 mins followed by capsaicin treatment measured after 2 hrs. The format is functional, organism-based.
Data set [8] deals with Mus musculus. Kind of data set: Cognitive enhancing effect in Balb/c mouse assessed as protection against amyloid beta (1 to 42) oligomers-induced memory damage at 1 to 10 mg/kg, po qd via gavage for 17 days starting from 24 hrs post amyloid beta (1 to 42) oligomer treatment measured on day 14 by Y-maze test. The format is functional, organism-based.
The test system of data set [9] is Mus musculus. As to the kind of experiment: Induction of memory damage in Balb/c mouse at 1 to 10 mg/kg, po qd via gavage for 17 measured on day 14 by Y-maze test. The format is organism-based. The conditions noted are these: in vivo.
The subject of data set [10] is Mus musculus. As to the kind of experiment: Cognitive enhancing effect in amyloid beta (1 to 42)-induced dementia Balb/c mouse model assessed as protection against spatial memory impairment by measuring latency to find food on second, third and fourth days of test at 1 to 10 mg/kg, po qd via gavage for 17 days starting from 24 hrs post amyloid beta (1 to 42) oligomer treatment measured on day 14 by radial arm-maze test. The format is functional, organism-based.

The subject of data set [11] is Mus musculus. As to the kind of experiment: Cognitive enhancing effect in amyloid beta (1 to 42)-induced dementia Balb/c mouse model assessed as protection against spatial memory impairment by measuring reduction in total errors to find food on second, third and fourth days of test at 1 to 10 mg/kg, po qd via gavage for 17 days starting from 24 hrs post amyloid beta (1 to 42) oligomer treatment measured on day 14 by radial arm-maze test. The format is functional, organism-based.

Data set [12] in a line: Selectivity ratio of Ki for sigma2 receptor in rat liver membranes to Ki for human sigma1 receptor expressed in HEK293 cell membranes. The format is cell-based.
Data set [13] relates to Mus musculus. Kind of data set: In vivo antagonist activity at sigma1 receptor in sc dosed capsaicin-induced mechanical allodynia CD-1 mouse model assessed as increase in paw withdrawal latency pretreated for 30 mins followed by capsaicin treatment measured after 2 hrs. The format is functional, organism-based.
In data set [14] the test system is Mus musculus. Kind of data set: Cognitive enhancing effect in amyloid beta (1 to 42)-induced dementia Balb/c mouse model assessed as protection against spatial memory impairment by measuring latency to find food on fourth day of test at 1 to 10 mg/kg, po qd via gavage for 17 days starting from 24 hrs post amyloid beta (1 to 42) oligomer treatment measured on day 14 by radial arm-maze test. The format is functional, organism-based.

For data set [15], the system named is Mus musculus. Kind of data set: Cognitive enhancing effect in amyloid beta (1 to 42)-induced dementia Balb/c mouse model assessed as protection against spatial memory impairment by measuring reduction in total errors to find food on third and fourth days of test at 1 to 10 mg/kg, po qd via gavage for 17 days starting from 24 hrs post amyloid beta (1 to 42) oligomer treatment measured on day 14 by radial arm-maze test. The format is functional, organism-based.

Calls of active or inactive are those of the source. The calls are words filed in the database; no cut-off is given here.

Sigma non-opioid intracellular receptor 1, sequence (Q99720 whole entry): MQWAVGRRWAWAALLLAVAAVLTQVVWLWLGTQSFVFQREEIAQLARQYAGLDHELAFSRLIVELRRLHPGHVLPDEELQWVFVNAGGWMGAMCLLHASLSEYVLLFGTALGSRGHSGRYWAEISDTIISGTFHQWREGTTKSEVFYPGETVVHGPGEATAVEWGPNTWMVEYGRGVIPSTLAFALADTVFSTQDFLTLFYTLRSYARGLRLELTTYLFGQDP

For `COc1cc2c(cc1OC)C(=O)C(CC1CCN(Cc3ccccc3)CC1)C2` (stereo not given), the outcome with Mus musculus [1], with Mus musculus [2] and with Mus musculus [3] was Active.
In the case of `C#CCN(C)Cc1cc2cc(OCCCN3CCCCC3)ccc2n1C`, the IC50 (usually the concentration at which inhibition is half-maximal) at Cholinesterase amounted to 1690 nM; on Acetylcholinesterase, 530 nM. In addition, the inhibitory constant (Ki) (in general, the equilibrium dissociation constant of an inhibitor or competing ligand from its target) at Histamine H3 receptor came out at 10.8 nM; in data set [4], 65.2 nM; in data set [5] it was 326 nM; in [6] it was 46.3 nM. The Activity result is “Dose-dependent effect” in the data set on Mus musculus [7] and “Non-Toxic” with Mus musculus [9]. Also, the outcome in the data set on Mus musculus [8], in the data set with Mus musculus [10] and with Mus musculus [11] was Active.
On to `C#CCN(C)Cc1cc2cc(OCCCC3CCN(Cc4ccccc4)CC3)ccc2n1C`, for which the Ki in data set [4] is 2.83 nM; in [5] it was 50.3 nM; in data set [6], 2.58 nM. For the same molecule, the Ratio Ki in data set [12] came out at 18. For the same molecule, the inhibition result with Mus musculus [13] is “Dose-dependent effect”. The result with Mus musculus [8], in the data set on Mus musculus [14] and in the data set with Mus musculus [15] was Active.
The molecule `OC1CCCCC1N1CCC(c2ccccc2)CC1` (racemic) registered a Ki in data set [5] of 63.4 nM.
Consider `COc1ccc(CCN2CCN(CCCc3ccccc3)CC2)cc1OC` [[11C]SA4503], for which the Ki in data set [5] was 62.2 nM; in data set [6], 492 nM.
